# Data: ChEMBL document CHEMBL3865829 (Eur J Med Chem, 2016)
# How the values were obtained:
# [1] = Cytotoxicity against human A549 cells after 72 hrs by MTT assay; format: functional, cell-based; details: A549, 72 h
# [2] = Cytotoxicity against human U87MG cells after 72 hrs by MTT assay; format: functional, cell-based, U-87MG ATCC; details: U-87 MG
# [3] = cells; details: Homo sapiens, HCT-116, 72 h
# [4] = Cytotoxicity against human MDA-MB-231 cells after 72 hrs by MTT assay; format: functional, cell-based; details: MDA-MB-231, 72 h
# [5] = Cytotoxicity against human HepG2 cells after 72 hrs by MTT assay; format: functional, cell-based; details: HepG2, 72 h
SMILES,IC50 [1] [nM],IC50 [2] [nM],IC50 [3] [nM],IC50 [4] [nM],IC50 [5] [nM]
COc1ncc(-c2ccc3nccc(-c4ccc(C)cc4)c3c2)cc1NS(=O)(=O)c1ccc(F)cc1F,1240,67000,2540,,
COc1ncc(-c2ccc3nccc(-c4ccc(CN5CCN(C)CC5)cc4)c3c2)cc1NS(=O)(=O)c1ccc(F)cc1F,13.3,336,43.9,,
CCN(Cc1ccc(-c2ccnc3ccc(-c4cnc(OC)c(NS(=O)(=O)c5ccc(F)cc5F)c4)cc23)cc1)C1CCCCC1,20.2,1450,222,,
COc1ncc(-c2ccc3nccc(-c4ccc(CN(CCO)CCO)cc4)c3c2)cc1NS(=O)(=O)c1ccc(F)cc1F,2.8,143,3.8,,
COc1ncc(-c2ccc3nccc(-c4ccc(CN5CCCCC5)cc4)c3c2)cc1NS(=O)(=O)c1ccc(F)cc1F,15.5,32,34.1,,
CCN(CC)Cc1ccc(-c2ccnc3ccc(-c4cnc(OC)c(NS(=O)(=O)c5ccc(F)cc5F)c4)cc23)cc1,22 to 22.1,4890,5,,
COc1ncc(-c2ccc3nccc(-c4ccc(CN5CCN(C(C)C)CC5)cc4)c3c2)cc1NS(=O)(=O)c1ccc(F)cc1F,1.9,468,24.7,,
COc1ncc(-c2ccc3nccc(-c4ccc(CN5CCOCC5)cc4)c3c2)cc1NS(=O)(=O)c1ccc(F)cc1,17,,30,1970,27200
COc1ncc(-c2ccc3nccc(-c4ccc(Cn5cccn5)cc4)c3c2)cc1NS(=O)(=O)c1ccc(F)cc1F,30.8,1600,53.1,,
COc1ncc(-c2ccc3nccc(N4CCCC4)c3c2)cc1NS(=O)(=O)c1ccc(F)cc1F,3410,6690,3320,,
CN(CCO)Cc1ccc(-c2ccnc3ccc(-c4cnc(Cl)c(NS(=O)(=O)c5ccc(F)cc5)c4)cc23)cc1,15,,24,260,1910
COc1ncc(-c2ccc3nccc(-c4ccc(CN5CCCC5)cc4)c3c2)cc1NS(=O)(=O)c1ccc(F)cc1F,37.5,159,18.8,,
COc1ncc(-c2ccc3nccc(-c4ccc(Cn5ccnc5C)cc4)c3c2)cc1NS(=O)(=O)c1ccc(F)cc1F,10.2,40,14.2,,
COc1ncc(-c2ccc3nccc(-c4ccc(CN(C)C)cc4)c3c2)cc1NS(=O)(=O)c1ccc(F)cc1,25,,24,350,3020
COc1ncc(-c2ccc3nccc(N4CCOCC4)c3c2)cc1NS(=O)(=O)c1ccc(F)cc1F,2400,> 100000,4430,,
COc1ncc(-c2ccc3nccc(-c4ccc(CN5CCN(CCO)CC5)cc4)c3c2)cc1NS(=O)(=O)c1ccc(F)cc1F,24.8,21.2,21.7,,
CN(CCO)Cc1ccc(-c2ccnc3ccc(-c4cnc(Cl)c(NS(=O)(=O)c5ccc(F)cc5F)c4)cc23)cc1,121,,41,337,2880
COc1ncc(-c2ccc3nccc(-c4ccc(Cn5ccnc5)cc4)c3c2)cc1NS(=O)(=O)c1ccc(F)cc1F,30.8,600,32.6,,
O=S(=O)(Nc1cc(-c2ccc3nccc(-c4ccc(CN5CCOCC5)cc4)c3c2)cnc1Cl)c1ccc(F)cc1,53,,41,2580,7740
O=S(=O)(Nc1cc(-c2ccc3nccc(-c4ccc(Cn5cncn5)cc4)c3c2)cnc1Cl)c1ccc(F)cc1,178,,33,228,9600
COc1ncc(-c2ccc3nccc(Cl)c3c2)cc1NS(=O)(=O)c1ccc(F)cc1F,2940,> 100000,6590,,
CN(C)Cc1ccc(-c2ccnc3ccc(-c4cnc(Cl)c(NS(=O)(=O)c5ccc(F)cc5F)c4)cc23)cc1,251,,24,53,3860
